Broadly, the TD50 is the 50% point of the dose-response relation for the toxic effect studied.

Among the data in PubChem BioAssay AID1745844 (Carcinogenic Potency Database (CPDB), 2022) are carcinogen call and TD50 values, retold here.

For this data set, the system named is rodent lifetime carcinogenesis bioassay, tumor incidence TD50. Briefly: chronic cancer bioassays in animals – CPDB, compiled studies (AID 1745844).
[1] abbreviates: mouse, strain B6C3F1, females, in feed, site: any site (literature study), lesion: several types, types named in the paper, dosed 103 weeks, study length 103 weeks.
[2] abbreviates: mouse, strain B6C3F1, females, in feed, site: lung, lesion: alveolar/bronchiolar adenoma + alveolar/bronchiolar carcinoma, dosed 103 weeks, study length 103 weeks.
Setting [3] is: mouse, strain B6C3F1, males, in feed, site: any site (literature study), lesion: several types, types named in the paper, dosed 103 weeks, study length 103 weeks.
[4] abbreviates: mouse, strain B6C3F1, males, in feed, site: liver, lesion: hepatocellular adenoma + hepatocellular carcinoma + neoplastic nodule, dosed 103 weeks, study length 103 weeks.
Where [5] appears, read: mouse, strain B6C3F1, males, in feed, site: lung, lesion: alveolar/bronchiolar adenoma + alveolar/bronchiolar carcinoma, dosed 103 weeks, study length 103 weeks.

“And” between values parts separate entries of the source, which are not always exact repeats. Identical values can stand only once. The source made the active and inactive calls. How the calls were made is not given here.

Consider `NC(=S)Nc1cccc2ccccc12`, for which the carcinogen call is, setting by setting: (mouse, strain B6AKF1, females, oral dosing, site: any site (literature study), lesion: several types, types named in the paper, dosed 76 weeks, study length 76 weeks) “negative (inactive)”; (mouse, strain B6AKF1, females, oral dosing, site: liver, lesion: hepatoma, dosed 76 weeks, study length 76 weeks) “negative (inactive)”; (mouse, strain B6AKF1, females, oral dosing, site: lung, lesion: adenoma, dosed 76 weeks, study length 76 weeks) “negative (inactive)”; (mouse, strain B6AKF1, males, oral dosing, site: any site (literature study), lesion: several types, types named in the paper, dosed 76 weeks, study length 76 weeks) “negative (inactive)”; (mouse, strain B6AKF1, males, oral dosing, site: liver, lesion: hepatoma, dosed 76 weeks, study length 76 weeks) “negative (inactive)”; (mouse, strain B6AKF1, males, oral dosing, site: lung, lesion: adenoma, dosed 76 weeks, study length 76 weeks) “negative (inactive)”. For the same compound, the carcinogen call is “negative (inactive)” (mouse, strain B6C3F1, females, oral dosing, site: liver, lesion: hepatoma, dosed 76 weeks, study length 76 weeks); “negative (inactive)” (mouse, strain B6C3F1, females, oral dosing, site: lung, lesion: several types, types named in the paper, dosed 76 weeks, study length 76 weeks); “negative (inactive)” (mouse, strain B6C3F1, males, oral dosing, site: liver, lesion: hepatoma, dosed 76 weeks, study length 76 weeks). Moreover, the TD50 is, setting by setting: (mouse, strain B6C3F1, females, oral dosing, site: any site (literature study), lesion: several types, types named in the paper, dosed 76 weeks, study length 76 weeks) 5.34 mg/kg/day (inactive); (mouse, strain B6C3F1, males, oral dosing, site: any site (literature study), lesion: several types, types named in the paper, dosed 76 weeks, study length 76 weeks) 0.7 mg/kg/day (inactive); (mouse, strain B6C3F1, males, oral dosing, site: lung, lesion: adenoma, dosed 76 weeks, study length 76 weeks) 1.27 mg/kg/day (inactive).

`CCOC(=O)CC(SP(=O)(OC)OC)C(=O)OCC` (centres undefined): the carcinogen call by setting is: under setting [1], “negative (inactive)”; (rat, strain Fischer 344, males, in feed, site: any site (literature study), lesion: several types, types named in the paper, dosed 103 weeks, study length 104 weeks) “negative (inactive)”. Besides, the TD50 reads like this: under setting [2], 2760 mg/kg/day; under setting [3], 472 mg/kg/day (inactive); under setting [4], 579 mg/kg/day; under setting [5], 3230 mg/kg/day; (rat, strain Fischer 344, females, in feed, site: thyroid gland, lesion: c-cell adenoma + c-cell carcinoma, dosed 103 weeks, study length 104 weeks) 296 mg/kg/day (inactive); (rat, strain Fischer 344, males, in feed, site: liver, lesion: hepatocellular adenoma + hepatocellular carcinoma + neoplastic nodule, dosed 103 weeks, study length 104 weeks) 1560 mg/kg/day.

In the case of `O=NN(CC(=O)O)CC(=O)O`, the TD50 is 63.9 mg/kg/day (inactive) (rat, strain MRC, females, in drinking water, site: any site (literature study), lesion: several types, types named in the paper, dosed 72 weeks, study length 104 weeks); 76 mg/kg/day (inactive) (rat, strain MRC, males, in drinking water, site: any site (literature study), lesion: several types, types named in the paper, dosed 72 weeks, study length 104 weeks); 66.9 mg/kg/day (inactive) (rat, strain MRC, males, in drinking water, site: pituitary gland, lesion: one or several types, types not named, dosed 72 weeks, study length 104 weeks).

Regarding `C=CC`, the carcinogen call by setting is: (mouse, strain B6C3F1, females, inhaled, site: any site (literature study), lesion: several types, types named in the paper, dosed 103 weeks, study length 105 weeks) “negative (inactive)”; (mouse, strain B6C3F1, males, inhaled, site: any site (literature study), lesion: several types, types named in the paper, dosed 103 weeks, study length 105 weeks) “negative (inactive)”; (mouse, strain Swiss, males, inhaled, site: any site (literature study), lesion: malignant tumor, dosed 78 weeks, study length 104 weeks) “negative (inactive)”; (mouse, strain Swiss, males, inhaled, site: any site (literature study), lesion: several types, types named in the paper, dosed 78 weeks, study length 104 weeks) “negative (inactive)”; (mouse, strain Swiss, males, inhaled, site: liver, lesion: hepatoma, dosed 78 weeks, study length 104 weeks) “negative (inactive)”; (mouse, strain Swiss, males, inhaled, site: lung, lesion: adenocarcinoma, dosed 78 weeks, study length 104 weeks) “negative (inactive)”. The carcinogen call is “negative (inactive)” (mouse, strain Swiss, males, inhaled, site: lung, lesion: adenoma, dosed 78 weeks, study length 104 weeks) and “negative (inactive)” (rat, strain Fischer 344, females, inhaled, site: any site (literature study), lesion: several types, types named in the paper, dosed 103 weeks, study length 104 weeks). Moreover, the TD50 is 20100 mg/kg/day (inactive) (mouse, strain Swiss, females, inhaled, site: any site (literature study), lesion: malignant tumor, dosed 78 weeks, study length 104 weeks); 10100 mg/kg/day (inactive) (mouse, strain Swiss, females, inhaled, site: any site (literature study), lesion: several types, types named in the paper, dosed 78 weeks, study length 104 weeks); 286000 mg/kg/day (inactive) (mouse, strain Swiss, females, inhaled, site: liver, lesion: hepatoma, dosed 78 weeks, study length 104 weeks); 1.2e+06 mg/kg/day (inactive) (mouse, strain Swiss, females, inhaled, site: lung, lesion: adenocarcinoma, dosed 78 weeks, study length 104 weeks); 19800 mg/kg/day (inactive) (mouse, strain Swiss, females, inhaled, site: lung, lesion: adenoma, dosed 78 weeks, study length 104 weeks); 20500 mg/kg/day (rat, strain Fischer 344, females, inhaled, site: liver, lesion: hepatocellular adenoma + hepatocellular carcinoma + neoplastic nodule, dosed 103 weeks, study length 104 weeks). Further, the TD50 (rat, strain Fischer 344, males, inhaled, site: any site (literature study), lesion: several types, types named in the paper, dosed 103 weeks, study length 104 weeks) was 15500 mg/kg/day (inactive) and the TD50 (rat, strain Fischer 344, males, inhaled, site: liver, lesion: hepatocellular adenoma + hepatocellular carcinoma + neoplastic nodule, dosed 103 weeks, study length 104 weeks) was determined as 4610 mg/kg/day.

As for `C[C@]12CC[C@H]3C(=CCc4cc(OS(=O)(=O)O)ccc43)[C@@H]1CCC2=O`, the carcinogen call was “negative (inactive)” (rat, strain Charles River CD (Sprague-Dawley), females, in feed, site: liver, lesion: one or several types, types not named, dosed 104 weeks, study length 104 weeks) and “negative (inactive)” (rat, strain Charles River CD (Sprague-Dawley), males, in feed, site: liver, lesion: hepatoma, dosed 104 weeks, study length 104 weeks).

In the case of `NC(=O)c1cnccn1`, the TD50 runs as follows: (mouse, strain B6C3F1, females, in feed, site: any site (literature study), lesion: several types, types named in the paper, dosed 78 weeks, study length 104 weeks) 3430 mg/kg/day; (mouse, strain B6C3F1, females, in feed, site: liver, lesion: hepatocellular adenoma + hepatocellular carcinoma + neoplastic nodule, dosed 78 weeks, study length 104 weeks) 10700 mg/kg/day; (mouse, strain B6C3F1, males, in feed, site: any site (literature study), lesion: several types, types named in the paper, dosed 78 weeks, study length 104 weeks) 546 mg/kg/day (inactive); (mouse, strain B6C3F1, males, in feed, site: liver, lesion: hepatocellular adenoma + hepatocellular carcinoma + neoplastic nodule, dosed 78 weeks, study length 104 weeks) 5180 mg/kg/day; (rat, strain Fischer 344, females, in feed, site: any site (literature study), lesion: several types, types named in the paper, dosed 78 weeks, study length 104 weeks) 182 mg/kg/day; (rat, strain Fischer 344, females, in feed, site: pituitary gland, lesion: chromophobe adenoma + chromophobe carcinoma, dosed 78 weeks, study length 104 weeks) 178 mg/kg/day (inactive). The TD50 (rat, strain Fischer 344, males, in feed, site: any site (literature study), lesion: several types, types named in the paper, dosed 78 weeks, study length 104 weeks) is 284 mg/kg/day (inactive).

Turning to `CCN(CC)CCCNC(=O)Cn1ncc(-c2ccccc2)c1-c1ccccc1`, the carcinogen call (rat, strain Charles River CD (Sprague-Dawley), females, by gavage, site: liver, lesion: one or several types, types not named, dosed 52 weeks, study length 52 weeks) was “negative (inactive)” and the carcinogen call (rat, strain Charles River CD (Sprague-Dawley), males, by gavage, site: liver, lesion: one or several types, types not named, dosed 52 weeks, study length 52 weeks) was “negative (inactive)”.

For `O=C1NC(c2ccc([N+](=O)[O-])s2)Nc2ccccc21` (centres undefined), the TD50 reads like this: (rat, strain Sprague-Dawley, females, in feed, site: any site (literature study), lesion: several types, types named in the paper, dosed 46 weeks, study length 66 weeks) 1.53 mg/kg/day; (rat, strain Sprague-Dawley, females, in feed, site: mammary gland, lesion: adenocarcinoma, dosed 46 weeks, study length 66 weeks) 13.3 mg/kg/day.

With `COc1ccc([N+](=O)[O-])cc1N=Nc1c(O)c(C(=O)Nc2cccc([N+](=O)[O-])c2)cc2ccccc12`, the TD50 is, setting by setting: under setting [1], 29700 mg/kg/day (inactive); under setting [2], 45200 mg/kg/day; under setting [3], 20200 mg/kg/day (inactive); under setting [4], 15100 mg/kg/day; under setting [5], 112000 mg/kg/day; (rat, strain Fischer 344, males, in feed, site: kidney, lesion: tubule adenoma + tubule carcinoma, dosed 103 weeks, study length 104 weeks) 19800 mg/kg/day and 16300 mg/kg/day. Besides, the carcinogen call (rat, strain Fischer 344, females, in feed, site: any site (literature study), lesion: several types, types named in the paper, dosed 103 weeks, study length 104 weeks) was “negative (inactive)”.
